Read-outs that look alike come from different tables or passages of the source.
How the values were obtained:
[1] = Octanol/water partition coefficient (Log Pow) of direct dyes; format: physicochemical; conditions: octanol/water partition coefficient of the dye
From the text: Pow is the octanol/water partition coefficient, which can be defined as the ratio of the concentration of a solute, such as the direct dye in the present disclosure, in a water-saturated octanolic phase to its concentration in an octanol-saturated aqueous phase. The octanol/water partition coefficient is typically expressed in Logarithmic form.
There are several existing experimental methods by the Organisation for Economic Co-operation and Development (OECD) and Quantitative Structure-Property Relationship (QSPR) models available for Log Pow measurement or prediction. The experimental methods include: the ‘slow-stirring’ method (OECD Test No. 123), the high-performance liquid chromatography (HPLC) method (OECD Test No. 117), and shake flask methods (referred to in OECD Test No. 107).
Thus, partition coefficient of a dye may be calculated as follows: Log Pow=Log [(dye concentration in octanol)/(dye concentration in water)].
The Log Pow value of a direct dye can be positive, negative or neutral. The Log Pow values for some dyes follows in the below table.

[2] = Removal of Basic Red 51 from dyed hair swatches by organic salt solutions (ΔE); conditions: 10% organic salt in water; Basic Red 51 dyed hair; soaked 30 minutes at 40° C.; water control 5.3
Procedure: (§1) Unless otherwise indicated, hair swatches were all treated using the same protocol. Specifically, 2 g dyed hair swatches are soaked in 80 g treatment solution in water for 30 minutes at 40° C., then the treated hair swatches are then shampooed/washed once (rinsing step) and blow-dried for evaluation.
(§2) Unless otherwise indicated, color removal performance is measured using CIE L* a* b* coordinates. ΔE is used to describe the color difference and is defined by the following equation: ΔE*ab=√{square root over ((L*2−L*1)^2+(a*2−a*1)^2+(b*2−b*1)^2)} where, L1*, a1; b1 are measured on freshly dyed hair L2*, a2, b2 are measured on the dyed hair treated by color remover systems. The higher ΔE values, the more efficient the color removal.
Hair swatches dyed with Basic Red 51 were treated with BMIM octylsulfate and TBuMA Cl, each at 10% concentration using the protocol described above. Basic Red 51 contains a quaternary moiety and has the structure below.

[3] = Removal of HC Blue 15 from dyed hair swatches by organic salt solutions (ΔE, CIE L*a*b*); conditions: HC Blue 15 dyed hair; for ΔE: soaked 30 minutes at 40° C., shampooed once
Procedure: as §1, §2
Hair swatches dyed with HC Blue 15 were treated with the organic salts at varying concentrations using the protocol described above.

[4] = 10% organic salt in water; hydroxyanthraquinoneaminopropyl methyl morpholinium methosulfate dyed hair; 30 minutes at 40° C.; water control 2.9

Log Pow [1] | Molecule | ΔE [2] | ΔE ([3]; 25% organic salt in water) | ΔE [4] | ΔE ([3]; 1% organic salt in water) | ΔE ([3]; 5% organic salt in water) | ΔE ([3]; 10% organic salt in water) | Concentration of organic salt from which the ΔE value increased significantly [3]
around 2.89 | COS(=O)(=O)[O-].C[N+]1(CCCNc2ccc(O)c3c2C(=O)c2ccccc2C3=O)CCOCC1 [Hydroxyanthraquinoneaminopropyl methyl morpholinium methosulfate] |  |  |  |  |  |  | 
 | CCCC[N+](C)(CCCC)CCCC.[Cl-] [TBuMA Cl, tributylmethyl ammonium chloride] | 23.1 | 32.8 |  |  |  |  | 
 | butyl-3-methylimidazolium octyl sulfate [BMIM octyl sulfate] | 22.2 |  | 39.1 | 1.3 | 18.4 | 32.2 | about 5%

From patent publication US11154479B1, “Methods of removing color from color-treated hair” (L'Oreal, priority 2020, dated 2021)
